Assay results: the supplement of paper PMC10307832

Compound: CN(C)C/C=C/C(=O)Nc1cc2c(Nc3ccc(F)c(Cl)c3)ncnc2cc1O[C@H]1CCOC1 [Afatinib] + CC(=O)Nc1cccc(-n2c(=O)n(C3CC3)c(=O)c3c(Nc4ccc(I)cc4F)n(C)c(=O)c(C)c32)c1 [Trametinib] (partner 0.02 µM)
Experiment: relative viability (nuclei count vs DMSO), 5 days (fraction); higher = more cells survive
Procedure, shortened: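 The day after seeding in 1536-well plates, lung cancer cell lines were treated by pin tool with a single drug, or with a fixed anchor-drug dose together with five library-drug doses (not always all listed) in √10 steps. After 5 days, a combined fix-and-stain solution (final 0.05% Triton X-100, 1% formaldehyde, 1 ug/ml Hoechst) was added. Nuclei counted on 4× images gave relative viability as treated counts over vehicle counts, reported as the median of duplicate plates.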

| Cell Line | relative viability (first compound 0.005 µM) | relative viability (first compound 0.01581 µM) | relative viability (first compound 0.05 µM) | relative viability (first compound 0.1581 µM) | relative viability (first compound 0.5 µM) |
| --- | --- | --- | --- | --- | --- |
| 201T | 0.688 | 0.709 | 0.712 | 0.673 | 0.673 |
| A-427 | 0.702 | 0.686 | 0.733 | 0.812 | 0.633 |
| BEN | 1.01 | 1.1 | 1.11 | 0.948 | 1.01 |
| CAL-12T | 0.278 | 0.273 | 0.286 | 0.247 | 0.261 |
| COR-L23 | 0.625 | 0.648 | 0.723 | 0.582 | 0.608 |
| COR-L 105 | 0.38 | 0.315 | 0.379 | 0.34 | 0.352 |
| ChaGo-K-1 | 0.922 | 0.911 | 0.885 | 0.866 | 0.813 |
| EKVX | 0.255 | 0.246 | 0.216 | 0.16 | 0.162 |
| EMC-BAC-2 | 0.945 | 0.888 | 0.823 | 0.873 | 0.872 |
| EPLC-272H | 0.251 | 0.265 |  | 0.229 | 0.27 |
| H3255 | 0.297 | 0.208 | 0.288 | 0.195 | 0.237 |
| HARA | 0.417 |  | 0.38 | 0.311 | 0.38 |
| HCC-15 | 0.338 | 0.393 | 0.325 | 0.35 | 0.344 |
| HCC-44 | 1.04 | 1.09 | 1.01 | 1.04 | 1.12 |
| HCC-78 | 0.788 | 0.677 | 0.723 | 0.559 | 0.698 |
| HCC-366 | 0.361 | 0.247 | 0.353 | 0.293 | 0.29 |
| HCC-827 | 0.16 | 0.165 | 0.179 | 0.161 | 0.15 |
| HOP-62 | 0.354 | 0.38 | 0.419 | 0.333 | 0.378 |
| LC-2-ad | 0.954 | 0.914 | 0.92 | 0.832 | 0.87 |
| LCLC-97TM1 | 0.17 | 0.215 |  | 0.153 | 0.171 |
| LCLC-103H | 0.602 | 0.698 | 0.736 | 0.634 | 0.697 |
| LK-2 | 0.908 | 0.846 | 0.633 | 0.78 | 0.73 |
| LOU-NH91 | 0.718 | 0.683 | 0.718 | 0.671 | 0.727 |
| LU99A | 0.635 | 0.569 | 0.589 | 0.509 | 0.552 |

| Cell Line | relative viability (first compound 0.005 µM) | relative viability (first compound 0.01581 µM) | relative viability (first compound 0.05 µM) | relative viability (first compound 0.1581 µM) | relative viability (first compound 0.5 µM) |
| --- | --- | --- | --- | --- | --- |
| LXF-289 | 0.702 | 0.716 | 0.616 | 0.613 | 0.647 |
| NCI-H23 | 0.358 | 0.323 | 0.359 | 0.331 | 0.345 |
| NCI-H322M | 0.492 | 0.463 | 0.458 | 0.43 | 0.442 |
| NCI-H358 | 0.119 | 0.115 | 0.13 | 0.102 | 0.127 |
| NCI-H441 | 0.536 | 0.347 | 0.396 | 0.325 | 0.384 |
| NCI-H460 | 0.161 | 0.139 | 0.187 | 0.133 | 0.136 |
| NCI-H520 | 0.892 | 0.633 | 0.725 | 0.734 | 0.545 |
| NCI-H596 | 0.783 | 0.725 | 0.834 | 0.782 | 0.797 |
| NCI-H647 | 0.554 | 0.465 | 0.451 | 0.468 | 0.438 |
| NCI-H650 | 0.947 | 0.983 | 0.991 | 0.969 | 1.01 |
| NCI-H661 | 0.52 | 0.415 | 0.457 | 0.367 | 0.369 |
| NCI-H727 | 0.391 | 0.359 | 0.393 | 0.299 | 0.34 |
| NCI-H838 | 0.585 | 0.434 | 0.523 | 0.525 | 0.685 |
| NCI-H1355 | 0.366 | 0.428 | 0.381 | 0.306 | 0.341 |
| NCI-H1395 | 1.13 | 0.832 | 1.09 | 0.911 | 1.06 |
| NCI-H1437 | 0.434 | 0.413 | 0.472 | 0.414 | 0.434 |
| NCI-H1648 | 0.423 | 0.462 | 0.316 | 0.287 | 0.246 |
| NCI-H1650 | 0.431 | 0.357 | 0.475 | 0.484 | 0.365 |
| NCI-H1651 | 0.856 | 0.862 | 0.838 | 0.808 | 0.785 |
| NCI-H1666 | 0.673 | 0.648 | 0.776 | 0.815 | 0.791 |
| NCI-H1734 | 0.684 | 0.671 | 0.715 | 0.683 | 0.692 |
| NCI-H1755 | 0.767 | 0.792 | 0.807 | 0.679 | 0.792 |
| NCI-H1792 | 0.56 | 0.393 | 0.562 | 0.538 | 0.427 |
| NCI-H1793 | 0.436 | 0.377 | 0.432 | 0.345 | 0.401 |

| Cell Line | relative viability (first compound 0.005 µM) | relative viability (first compound 0.01581 µM) | relative viability (first compound 0.05 µM) | relative viability (first compound 0.1581 µM) | relative viability (first compound 0.5 µM) |
| --- | --- | --- | --- | --- | --- |
| NCI-H1915 | 0.309 | 0.304 | 0.314 | 0.3 | 0.301 |
| NCI-H1944 | 0.431 | 0.373 | 0.358 | 0.259 | 0.298 |
| NCI-H1975 | 0.342 | 0.288 | 0.407 | 0.242 | 0.195 |
| NCI-H1993 | 0.593 | 0.442 | 0.58 | 0.546 | 0.53 |
| NCI-H2009 | 0.314 | 0.217 | 0.319 | 0.268 | 0.247 |
| NCI-H2023 | 0.527 | 0.505 | 0.489 | 0.398 | 0.393 |
| NCI-H2085 | 0.433 | 0.507 | 0.692 | 0.513 | 0.457 |
| NCI-H2087 | 0.223 | 0.147 | 0.183 | 0.117 | 0.15 |
| NCI-H2126 | 0.529 | 0.585 | 0.493 | 0.462 | 0.459 |
| NCI-H2170 | 0.892 | 0.853 | 0.615 | 0.169 | 0.156 |
| NCI-H2228 | 0.833 | 0.395 | 0.544 | 0.467 | 0.466 |
| NCI-H2342 | 0.761 | 0.723 | 0.726 | 0.74 | 0.672 |
| NCI-H2347 | 0.27 | 0.292 | 0.277 | 0.275 | 0.283 |
| NCI-H2405 | 0.597 | 0.482 | 0.529 | 0.537 | 0.594 |
| NCI-H3122 | 0.186 | 0.192 | 0.224 | 0.248 | 0.223 |
| PC-3 [JPC-3] | 0.441 | 0.4 | 0.443 | 0.285 | 0.438 |
| PC-14 | 0.101 | 0.103 | 0.117 | 0.0763 | 0.0964 |
| RERF-LC-KJ | 0.852 | 0.806 | 0.723 | 0.684 | 0.674 |
| SK-LU-1 | 0.504 | 0.405 | 0.604 | 0.526 | 0.483 |
| SK-MES-1 | 0.424 | 0.317 | 0.349 | 0.307 | 0.42 |
| SW 1573 | 0.524 | 0.551 | 0.616 | 0.526 | 0.53 |
| UMC-11 | 0.73 | 0.732 | 0.667 | 0.7 | 0.908 |
